# Results taken from patent publication US11116219B2, “Method for controlling discharge-type multidrug resistant plant diseases” (SUMITOMO CHEMICAL COMPANY, LIMITED, priority 2017, dated 2021).
# Key:
# [1] = test system: efflux type multidrug resistant fungus strain 2: MFS transporter-overexpressing fungus strain (Bc-107) of grapes gray mold fungus (Botrytis cinerea); experiment: Control test against efflux type multidrug resistant grapes gray mold fungus, strain 2; assay type: cell-based
# Experimental: (§1) Control Test Against Efflux Type Multidrug Resistant Grapes Gray Mold Fungus (Botrytis cinerea)
# (§2) Each of the present compound (1), fludioxonil and tolnaftrate was diluted with dimethyl sulfoxide to a prescribed concentration thereof, respectively. Each of the chemical solutions comprising the respective testing compound was dispensed into a titer plate (with 96 wells) in the amount of 1 μL. […] The plate was cultured at 18° C. for 2 days, thereby allowing each grapes gray mold fungus to undergo proliferation, and the absorbance at 600 nm of each well of the titer plate was then measured to determine a degree of growth of each of the grapes gray mold fungi (treated group). […]
# (§3) The efficacy was calculated from the degree of the growth by the below-mentioned “Equation 1”, and then each EC50 value of the testing compound, respectively against the efflux type multidrug resistant fungus strains and the wild-type fungus strain was calculated. Also, an EC50 value ratio was calculated by the above-mentioned “Equation 2”.
# [2] = test system: grapes gray mold fungus (Botrytis cinerea) wild-type fungus strain; experiment: Control test against grapes gray mold fungus, wild-type fungus strain (titer plate growth, absorbance at 600 nm); assay type: cell-based; conditions: PDB culture media, 18° C., 2 days
# Experimental: as §1, §2, §3
# [3] = test system: Efflux type multidrug resistant wheat Septoria leaf blotch fungus (Zymoseptoria tritici), fungus strain St 106-6; experiment: Control test against efflux type multidrug resistant wheat Septoria leaf blotch fungus (titer plate growth, absorbance at 600 nm); assay type: cell-based
# Experimental: (§4) Control test against Efflux type multidrug resistant wheat Septoria leaf blotch fungus (Zymoseptoria tritici)
# as §2, with “(1)” for “(1), fludioxonil”, “4” for “2”, “wheat Septoria leaf blotch” for “grapes gray mold”, “of” for “of each of”, “wheat Septoria leaf blotch fungus” for “grapes gray mold fungi”
# (§5) The efficacy was calculated from the degree of the growth by the below-mentioned “Equation 1”, and then each EC50 value of the testing compound, respectively against the efflux type multidrug resistant fungus strains and the wild-type fungus strain was calculated. Next, as shown in the below-mentioned “Equation 2”, an EC50 value ratio was calculated by dividing an EC50 value against the efflux type multidrug resistant fungus strains by an EC50 value against the wild-type fungus strain. […]
# [4] = test system: efflux type multidrug resistant fungus strain 1: ABC transporter-overexpressing fungus strain (Bc-56) of grapes gray mold fungus (Botrytis cinerea); experiment: Control test against efflux type multidrug resistant grapes gray mold fungus, strain 1; assay type: cell-based
# Experimental: as §1, §2, §3
# [5] = test system: efflux type multidrug resistant fungus strain 3: ABC transporter and MFS transporter-overexpressing fungus strain (Bc-103) of grapes gray mold fungus (Botrytis …); experiment: Control test against efflux type multidrug resistant grapes gray mold fungus, strain 3; assay type: cell-based, Botrytis cinerea
# Experimental: as §1, §2, §3
# [6] = test system: wheat Septoria leaf blotch fungus (Zymoseptoria tritici) wild-type fungus strain; experiment: Control test against wheat Septoria leaf blotch fungus, wild-type fungus strain (titer plate growth, absorbance at 600 nm); assay type: cell-based; conditions: PDB culture media, 18° C., 4 days
# Experimental: as §4
# as §2, with “(1)” for “(1), fludioxonil”, “4” for “2”, “wheat Septoria leaf blotch” for “grapes gray mold”, “of” for “of each of”, “wheat Septoria leaf blotch fungus” for “grapes gray mold fungi”
# as §5
structure (smiles),measurement,setting,value
Cn1c(=O)c2sc3c(=O)n(C)c(=O)c3sc2c1=O [Present compound (1)],"EC50 value, Efflux type multidrug resistant fungus strain 2","[1]; Botrytis cinerea Bc-107 (MFS transporter-overexpressing), 18° C., 2 days",1.7 ppm
same,EC50 value ratio 2,"[1]; EC50 against efflux type multidrug resistant strain 2 / EC50 against wild-type, Botrytis cinerea",0.89
same,"EC50 value, Wild-type fungus strain",[2],1.9 ppm
same,EC50 value ratio,"[3]; EC50 against efflux type multidrug resistant fungus strain / EC50 against wild-type fungus strain, Zymoseptoria tritici",1.1
same,"EC50 value, Efflux type multidrug resistant fungus strain","[3]; Zymoseptoria tritici St 106-6, PDB culture media, 18° C., 4 days",1.3 ppm
same,"EC50 value, Efflux type multidrug resistant fungus strain 1","[4]; Botrytis cinerea Bc-56 (ABC transporter-overexpressing), 18° C., 2 days",1.7 ppm
same,EC50 value ratio 1,"[4]; EC50 against efflux type multidrug resistant strain 1 / EC50 against wild-type, Botrytis cinerea",0.89
same,"EC50 value, Efflux type multidrug resistant fungus strain 3","[5]; Botrytis cinerea Bc-103 (ABC and MFS transporter-overexpressing), 18° C., 2 days",2.4 ppm
same,EC50 value ratio 3,"[5]; EC50 against efflux type multidrug resistant strain 3 / EC50 against wild-type, Botrytis cinerea",1.3
same,"EC50 value, Wild-type fungus strain",[6],1.2 ppm
